EC50 data for 49 compounds are collected here from patent publication US20230406843A1, “Progranulin Modulators and Methods of Using the Same” (ARKUDA THERAPEUTICS, priority 2020, published 2023).

This test relates to progranulin. Nature of the test: Progranulin induction cellular assay (ELISA of secreted mouse PGRN). It is filed as cell-based. The conditions noted are these: progranulin induction assay; mouse pMG, primary cortical neurons and BV-2 cell lines named, cell type not given; ELISA-based readout; read-out: EC50. The method, then:
Cellular Assays: Progranulin induction assay. To measure the efficacy of compounds, a progranulin induction cellular assay in mouse primary microglia (pMG), primary cortical neurons, and BV-2 cell lines is used. BV-2 cells are split the day before plating into a 96 well plate format at approximately 80%. Cells should be plated the day before and allowed for 1 hour attachment period and for 16 hour incubation. Levels of progranulin secreted into the cell culture medium or retained in the cell lysate can be quantified using an ELISA-based readout and measurement of secreted mouse PGRN in the medium was assessed by the methodology published by Ghidoni et al. 2012. Standard ELISA kits to measure PGRN are available from vendors such as Adipogen, R&D, and Biovendor.
Table B below presents the results of a progranulin induction assay as described above.
(In an ELISA, binding on a coated surface is turned into a signal by an enzyme label.)
With `NCC1COC(C(=O)N2CCc3ccccc3[C@@H]2c2ccc(F)cc2)C1` (mixture of isomers) [Compound 5014, ((2R)-4-(aminomethyl)tetrahydrofuran-2-yl)((S)-1-(4-fluorophenyl)-3,4-dihydroisoquinolin-2(1H)-yl)methanone], the EC50 (in general, the concentration giving half of the maximal effect) was found to be 501 nM. `NC[C@@]1(O)COC(C(=O)N2CCc3ccccc3[C@@H]2c2ccc(F)cc2)C1` (single isomer, unassigned) [Compound 5004]: the concentration giving a half-maximal response (EC50) was 164 nM. As to `NC[C@]1(O)COC(C(=O)N2CCc3ccccc3[C@@H]2c2ccc(F)cc2)C1` (single isomer, unassigned) [Compound 5005], the EC50 came out at 216 nM. `NCC1(O)COC(C(=O)N2CCc3ccccc3[C@@H]2c2ccc(F)cc2)C1` (single isomer, unassigned) [Compound 5006]: the 50% effective concentration (EC50) was 143 nM.

Consider `NCC1(O)COC(C(=O)N2CCc3ccccc3[C@@H]2c2ccc(F)cc2)C1` (single isomer, unassigned) [Compound 5007], for which the 50% effective concentration (EC50) was 140 nM.

Turning to `N[C@H]1CC[C@@H](C(=O)N2CCc3ccccc3[C@@H]2c2ccc(F)cc2)OC1` (single isomer, unassigned) [Compound 5016], the EC50 stood at 199 nM. In the case of `N[C@@H]1CC[C@H](C(=O)N2CCc3ccccc3[C@@H]2c2ccc(F)cc2)OC1` (single isomer, unassigned) [Compound 5017] it was 91 nM; in that of `N[C@@H]1CC[C@@H](C(=O)N2CCc3ccccc3[C@H]2c2ccc(F)cc2F)OC1` (single isomer, unassigned) [Compound 5019], 99 nM. For the compound `N[C@]12CC[C@](C(=O)N3CCc4ccccc4[C@@H]3c3ccc(F)cc3)(C1)OC2` (single isomer, unassigned) [Compound 5021], the 50% effective concentration (EC50) worked out at 148 nM. Then `N[C@]12CC[C@](C(=O)N3CCc4ccccc4[C@H]3c3ccc(F)cc3)(C1)OC2` (single isomer, unassigned) [Compound 5023], with 212 nM; and `N[C@H]1CCO[C@H](C(=O)N2CCc3ccccc3[C@@H]2c2ccc(F)cc2)C1` (single isomer, unassigned) [Compound 5027], with 488 nM. Turning to `N[C@@H]1CCO[C@@H](C(=O)N2CCc3ccccc3[C@@H]2c2ccc(F)cc2)C1` (single isomer, unassigned) [Compound 5028], the EC50 is 42 nM. In the case of `O=C([C@@H]1C[C@@](O)(CNCCO)CO1)N1CCc2ccccc2[C@@H]1c1ccc(F)cc1` (single isomer, unassigned) [Compound 5038], the EC50 worked out at 500 nM. In the case of `O=C([C@@H]1C[C@](O)(CNCCO)CO1)N1CCc2ccccc2[C@@H]1c1ccc(F)cc1` (single isomer, unassigned) [Compound 5039] it was 357 nM. `O=C([C@H]1C[C@@](O)(CNCCO)CO1)N1CCc2ccccc2[C@@H]1c1ccc(F)cc1` (single isomer, unassigned) [Compound 5040]: the EC50 was 173 nM.

On to `O=C([C@H]1CCNCCO1)N1CCc2ccccc2[C@@H]1c1ccc(F)cc1` (single isomer, unassigned) [Compound 5044], for which the EC50 is 163 nM.

With `O=C([C@@H]1CCNCCO1)N1CCc2ccccc2[C@@H]1c1ccc(F)cc1` (single isomer, unassigned) [Compound 5045], the EC50 was determined as 78 nM.

Take `NC[C@]1(O)CC[C@@H](C(=O)N2CCc3ccccc3[C@@H]2c2ccc(F)cc2)OC1` (single isomer, unassigned) [Compound 5046]: the half-maximal effective concentration (EC50) is 62 nM. In the case of `NC[C@@]1(O)CC[C@@H](C(=O)N2CCc3ccccc3[C@@H]2c2ccc(F)cc2)OC1` (single isomer, unassigned) [Compound 5047] it was 86 nM. Take `O=C([C@@H]1C[C@@H](NCCO)CO1)N1CCc2ccccc2[C@@H]1c1ccc(F)cc1` (single isomer, unassigned) [Compound 5066]: the EC50 turned out to be 948 nM.

Take `O=C([C@@H]1C[C@H](NCCO)CO1)N1CCc2ccccc2[C@@H]1c1ccc(F)cc1` (single isomer, unassigned) [Compound 5067]: the EC50 stood at 767 nM. On to `N[C@@]1(CO)CO[C@@H](C(=O)N2CCc3ccccc3[C@@H]2c2ccc(F)cc2)C1` (single isomer, unassigned) [Compound 5071], for which the EC50 stood at 252 nM. In the case of `N[C@H]1CCO[C@@H](C(=O)N2CCc3ccccc3[C@@H]2c2ccc(F)cc2)C1` (single isomer, unassigned) [Compound 5080] it was 166 nM. Then `N[C@@H]1CCO[C@H](C(=O)N2CCc3ccccc3[C@@H]2c2ccc(F)cc2)C1` (single isomer, unassigned) [Compound 5081], with 188 nM. In the case of `CO[C@H]1C[C@H](C(=O)N2CCc3ccccc3[C@@H]2c2ccc(F)cc2)OC[C@H]1N` (single isomer, unassigned) [Compound 5082] it was 44 nM; in that of `O=C([C@H]1CNCCCO1)N1CCc2ccccc2[C@@H]1c1ccc(F)cc1` (single isomer, unassigned) [Compound 5090], 162 nM; in that of `O=C([C@@H]1CNCCCO1)N1CCc2ccccc2[C@@H]1c1ccc(F)cc1` (single isomer, unassigned) [Compound 5091], 408 nM. Consider `C[C@]1(C(=O)N2CCc3ccccc3[C@@H]2c2ccc(F)cc2)C[C@@H](N)CCO1` (single isomer, unassigned) [Compound 5235], for which the half-maximal effective concentration (EC50) amounted to 372 nM. For `C[C@]1(C(=O)N2CCc3ccccc3[C@@H]2c2ccc(F)cc2)C[C@H](N)CCO1` (single isomer, unassigned) [Compound 5236], the half-maximal effective concentration (EC50) worked out at 393 nM. In the case of `C[C@@]1(C(=O)N2CCc3ccccc3[C@@H]2c2ccc(F)cc2)C[C@H](N)CCO1` (single isomer, unassigned) [Compound 5237], the EC50 is 665 nM. Then `C[C@@]1(C(=O)N2CCc3ccccc3[C@@H]2c2ccc(F)cc2)C[C@@H](N)CCO1` (single isomer, unassigned) [Compound 5238], with 105 nM; and `O=C([C@H]1OCCNC[C@H]1O)N1CCc2ccccc2[C@@H]1c1ccc(F)cc1` (single isomer, unassigned) [Compound 5246], with 100 nM. Then `O=C([C@H]1CCNCCO1)N1CCc2ccccc2[C@@H]1c1ccc(F)cc1F` (single isomer, unassigned) [Compound 5263], with 78 nM. Then `O=C([C@@H]1CCNCCO1)N1CCc2ccccc2[C@@H]1c1ccc(F)cc1F` (single isomer, unassigned) [Compound 5264], with 48 nM. Turning to `O=C([C@@H]1OCCNC[C@@H]1F)N1CCc2ccccc2[C@@H]1c1ccc(F)cc1` (single isomer, unassigned) [Compound 5418], the EC50 came out at 352 nM. With `O=C([C@H]1C[C@@H]2NCCS[C@H]2CO1)N1CCc2ccccc2[C@@H]1c1ccc(F)cc1` (single isomer, unassigned) [Compound 5534], the EC50 came out at 15 nM. Then `O=C([C@H]1C[C@@H]2NCC(CO)O[C@H]2CO1)N1CCc2ccccc2[C@@H]1c1ccc(F)cc1` (single isomer, unassigned) [Compound 5535], with 28 nM. Then `CC(=O)N1CCN[C@H]2C[C@H](C(=O)N3CCc4ccccc4[C@@H]3c3ccc(F)cc3)OC[C@@H]21` (single isomer, unassigned) [Compound 5543], with 3 nM; and `CCC(=O)N1CCN[C@H]2C[C@H](C(=O)N3CCc4ccccc4[C@@H]3c3ccc(F)cc3)OC[C@@H]21` (single isomer, unassigned) [Compound 5544], with 19 nM; and `O=C([C@H]1C[C@@H]2NCCN(CC(F)(F)F)[C@H]2CO1)N1CCc2ccccc2[C@@H]1c1ccc(F)cc1` (single isomer, unassigned) [Compound 5545], with 4 nM. In the case of `C[S@@+2]([NH-])([O-])[C@H]1CO[C@@H](C(=O)N2CCc3ccccc3[C@@H]2c2ccc(F)cc2)C[C@@H]1N` (single isomer, unassigned) [Compound 5547] it was 62 nM; in that of `C[S@](=N)(=O)[C@H]1CO[C@@H](C(=O)N2CCc3ccccc3[C@@H]2c2ccc(F)cc2)C[C@@H]1N` (single isomer, unassigned) [Compound 5548], 71 nM. Take `CC[S@@+2]([NH-])([O-])[C@H]1CO[C@@H](C(=O)N2CCc3ccccc3[C@@H]2c2ccc(F)cc2)C[C@@H]1N` (single isomer, unassigned) [Compound 5549]: the EC50 stood at 30 nM. For the compound `CC[S@](=N)(=O)[C@H]1CO[C@@H](C(=O)N2CCc3ccccc3[C@@H]2c2ccc(F)cc2)C[C@@H]1N` (single isomer, unassigned) [Compound 5550], the EC50 worked out at 17 nM. In the case of `CC[S@+2]([O-])([N-]C)[C@H]1CO[C@@H](C(=O)N2CCc3ccccc3[C@@H]2c2ccc(F)cc2)C[C@@H]1N` (single isomer, unassigned) [Compound 5551] it was 27 nM; in that of `CC[S@@](=O)(=NC)[C@H]1CO[C@@H](C(=O)N2CCc3ccccc3[C@@H]2c2ccc(F)cc2)C[C@@H]1N` (single isomer, unassigned) [Compound 5552], 11 nM. In the case of `N=[S@]1(=O)CCN[C@H]2C[C@H](C(=O)N3CCc4ccccc4[C@@H]3c3ccc(F)cc3)OC[C@@H]21` (single isomer, unassigned) [Compound 5554] it was 4860 nM. With `C[N-][S@@+2](C)([O-])[C@H]1CO[C@@H](C(=O)N2CCc3ccccc3[C@@H]2c2ccc(F)cc2)C[C@@H]1N` (single isomer, unassigned) [Compound 5555], the EC50 is 29 nM. With `C[N-][S@+2](C)([O-])[C@H]1CO[C@@H](C(=O)N2CCc3ccccc3[C@@H]2c2ccc(F)cc2)C[C@@H]1N` (single isomer, unassigned) [Compound 5556], the EC50 came to 70 nM.
